Literature values in patent US6420552B1, “Syntheses of 4-alkyl chromogenic glycosides and 7-alkyl chromogenic glycosides of N-acetylneuraminic acids” (priority 1999, dated 2002).

Columns and labels:
[1] = target: neuraminidase from Vibrio cholerae (Vibrio cholerae serotype O1, UniProt P0C6E9); conditions: 4-methylumbelliferyl α ketosides
[2] = test system: neuraminidase activity of influenza types A and B; conditions: substrate activity, result in words
[3] = test system: respiratory syncytial adenovirus; conditions: substrate activity, result in words
[4] = test system: neuraminidase activity of parainfluenza types 1 and 2; conditions: substrate activity, result in words

Sequence of neuraminidase from Vibrio cholerae (P0C6E9 25-781): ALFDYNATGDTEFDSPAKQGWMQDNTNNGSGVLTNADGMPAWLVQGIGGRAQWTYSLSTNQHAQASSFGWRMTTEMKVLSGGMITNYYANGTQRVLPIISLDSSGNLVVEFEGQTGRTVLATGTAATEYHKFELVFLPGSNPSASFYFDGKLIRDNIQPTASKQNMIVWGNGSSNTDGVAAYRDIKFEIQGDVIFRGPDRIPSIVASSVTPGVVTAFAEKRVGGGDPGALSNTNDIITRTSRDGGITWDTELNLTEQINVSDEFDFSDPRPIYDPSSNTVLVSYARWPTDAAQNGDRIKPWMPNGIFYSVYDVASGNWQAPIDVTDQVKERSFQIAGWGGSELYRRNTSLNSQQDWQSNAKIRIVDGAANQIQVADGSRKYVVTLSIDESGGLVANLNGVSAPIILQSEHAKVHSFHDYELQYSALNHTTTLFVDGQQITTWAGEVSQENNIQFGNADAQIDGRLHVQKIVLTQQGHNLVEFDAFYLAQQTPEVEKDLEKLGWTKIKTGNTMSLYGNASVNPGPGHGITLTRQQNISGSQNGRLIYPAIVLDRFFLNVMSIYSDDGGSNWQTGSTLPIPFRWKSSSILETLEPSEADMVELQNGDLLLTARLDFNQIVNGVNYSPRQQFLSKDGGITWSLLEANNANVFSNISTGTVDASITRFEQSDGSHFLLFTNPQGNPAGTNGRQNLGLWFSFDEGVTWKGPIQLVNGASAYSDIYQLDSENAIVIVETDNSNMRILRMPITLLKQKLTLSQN

| Compound | glycosidic hydrolysis by neuraminidase from Vibrio cholerae [1] | hydrolysis / colour development by neuraminidase activity of influenza types A and B [2] | hydrolysis by respiratory syncytial adenovirus [3] | hydrolysis / colour development by neuraminidase activity of parainfluenza types 1 and 2 [4] |
| --- | --- | --- | --- | --- |
| CC(=O)N[C@@H]1CCC(O)(C(=O)O)O[C@H]1C[C@H](O)CO (stereo partly shown) [4,7-dideoxy Neu5Ac] | significantly slowed |  |  |  |
| CC(=O)N[C@H]1[C@H]([C@@H](O)[C@@H](O)CO)OC(O)(C(=O)O)C[C@@H]1O (stereo partly drawn) [7,8-(bis)epi Neu5Ac] | significantly slowed |  |  |  |
| CC(=O)N[C@H]1[C@H](C[C@H](O)CO)OC(O)(C(=O)O)C[C@@H]1O (stereo partly shown) [7-deoxy Neu5Ac] | significantly slowed |  |  |  |
| 5-bromo-3-indolyl 4-O-methyl Neu5Ac ketoside |  | acted upon | not at all | acted upon |
| COC1CC(Oc2c[nH]c3ccc(Br)cc23)(C(=O)O)OC(C(OC)C(O)CO)C1NC(C)=O (stereo not shown) [5-bromo-3-indolyl 4,7-di-O-methyl Neu5Ac ketoside] |  | selectively hydrolyzed |  |  |
